The numbers were not newly measured in patent US20070266895A1, “Aliphatic Hydrocarbon Soluble Red Dyes” (priority 2004, published 2007), which cites them from elsewhere.

Consider `Cc1ccccc1/N=N/c1ccc(/N=N/c2c(O)ccc3ccccc23)c(C)c1` [C.I. Solvent Red 24], for which the “direct solubility in essentially aliphatic hydrocarbon based fuels” value (diesel or home heating oil) is “virtually no direct solubility”. For the same compound, the “direct solubility in aromatic hydrocarbon containing gasolines” value (dry powder dye) was “limited direct solubility”.
